Starred links: 1 amine or outer side, 2 acyl side, 3 side chain; linkers in the order of their positions; H or OH if unused. Positions of bridges follow the written chain, without caps; N, C: chain ends. Non-standard residues stand in square brackets, D forms with d. Residues, ends and D or L forms follow the SMILES beside them. Chains are numbered I, II in the order given. Actinocin(9to1) = Cc1c2oc3c(C)ccc(C(=O)[*:1])c3nc-2c(C(=O)[*:2])c(N)c1=O; NMeV = CN[C@H](C(=O)O)C(C)C; Sar = CNCC(=O)O
B1: RNase A: ribonuclease used to degrade the CDK9-Flag-associated 7SK (protein, UniProt P61823 27-150, looked up)
Ribonuclease pancreatic: KETAAAKFERQHMDSSTSAASSSNYCNQMMKSRNLTKDRCKPVNTFVHESLADVQAVCSQKNVACKNGQTNCYQSYSTMSITDCRETGSSKYPNCAYKTTQANKHIIVACEGNPYVPVHFDASV

What was measured:
7SK/P-TEFb interaction [1] = test: 7SK/P-TEFb interaction in nuclear extracts of treated F1C2 cells; assay type: cell-based, human; conditions: nuclear extract
Description: Certain agents that elicit SOS-like stress responses in mammalian cells can markedly enhance HIV-1 transcription in a manner analogous to prophage induction in Escherichia coli (6–8,20,21). […] In light of these observations, we investigated the effect of ultraviolet irradiation and actinomycin D on the 7SK/P-TEFb interaction in nuclear extracts of the treated F1C2 cells. […] Neither the level of total 7SK in the nuclear extract nor the CDK9/cyclin T1 interaction was affected. […] As for ultraviolet irradiation, 7SK was dissociated from P-TEFb as early as 15–30 min after treatment, long before any signs of apoptosis appeared. Thus, stress signals such as ultraviolet irradiation and actinomycin D can cause fast and efficient 7SK dissociation from P-TEFb, which explains their positive effects on HIV-1 transcription and Pol II phosphorylation.

7SK/P-TEFb interaction [2] = target: T1, 7SK/P-TEFb interaction (Homo sapiens, UniProt P50750); test: Direct incubation with nuclear extract, 7SK/P-TEFb interaction; assay type: binding
T1 construct: expressed in transfected cells; host or cells: F1C2 cell line (HeLa stably transfected with pBabe-puro-CDK9-Flag)
T1 sequence (P50750 whole entry): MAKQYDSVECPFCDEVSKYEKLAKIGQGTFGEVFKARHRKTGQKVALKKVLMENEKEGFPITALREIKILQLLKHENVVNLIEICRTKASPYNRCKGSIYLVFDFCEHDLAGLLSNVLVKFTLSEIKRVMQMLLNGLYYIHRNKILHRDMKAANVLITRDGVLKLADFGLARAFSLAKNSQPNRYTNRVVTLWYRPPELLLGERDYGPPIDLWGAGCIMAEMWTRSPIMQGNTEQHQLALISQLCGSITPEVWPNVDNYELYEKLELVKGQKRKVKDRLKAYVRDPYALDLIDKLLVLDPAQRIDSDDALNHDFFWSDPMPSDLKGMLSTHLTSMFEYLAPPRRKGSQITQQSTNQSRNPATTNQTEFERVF
T1 sequence (O60563 whole entry partner): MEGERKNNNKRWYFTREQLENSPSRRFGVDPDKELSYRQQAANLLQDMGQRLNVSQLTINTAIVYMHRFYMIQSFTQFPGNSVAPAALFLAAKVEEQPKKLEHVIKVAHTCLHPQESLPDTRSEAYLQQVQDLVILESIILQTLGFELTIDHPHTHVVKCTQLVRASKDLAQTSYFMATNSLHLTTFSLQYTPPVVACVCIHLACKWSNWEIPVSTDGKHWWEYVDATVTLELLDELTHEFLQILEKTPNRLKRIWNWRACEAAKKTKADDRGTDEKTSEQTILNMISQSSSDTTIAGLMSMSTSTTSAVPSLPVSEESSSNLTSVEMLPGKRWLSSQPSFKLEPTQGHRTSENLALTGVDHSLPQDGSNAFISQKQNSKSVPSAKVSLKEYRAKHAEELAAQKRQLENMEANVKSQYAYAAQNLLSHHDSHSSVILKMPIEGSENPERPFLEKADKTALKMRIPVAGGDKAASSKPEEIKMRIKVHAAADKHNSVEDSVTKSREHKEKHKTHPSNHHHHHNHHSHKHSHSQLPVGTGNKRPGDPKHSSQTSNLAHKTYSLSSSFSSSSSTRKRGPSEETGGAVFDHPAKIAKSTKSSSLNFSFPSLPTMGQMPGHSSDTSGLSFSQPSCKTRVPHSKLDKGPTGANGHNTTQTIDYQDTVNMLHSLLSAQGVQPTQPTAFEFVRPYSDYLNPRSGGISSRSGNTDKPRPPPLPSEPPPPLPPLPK

HIV-1 transcription = conditions: HeLa cells, low levels of drug; cited from earlier work
CDK9/cyclin T1 kinase = test: CDK9-Flag kinase reaction with purified RNA Pol II as substrate; assay type: biochemical, human; conditions: affinity-purified CDK9-Flag; degradation of associated 7SK
Protocol: 7SK could inhibit the activity of P-TEFb by suppressing the kinase activity of CDK9/cyclin T1. Affinity-purified CDK9-Flag and its associated factors were divided into two halves, incubated respectively with RNase A and DNase I, and tested in kinase reactions containing purified RNA Pol II as a substrate (9). […] This increase was significant given that only about 50% of the purified CDK9-Flag/cyclin T1 was associated with 7SK. […] To analyse more specifically the activity of P-TEFb bound to 7SK, this complex was affinity purified from HeLa nuclear extract using the 7SK antisense 2′-OMe RNA beads. Eluted with a displacement deoxyoligonucleotide (15), the P-TEFb bound to 7SK was divided into three equal portions, incubated respectively with RNase A, DNase I or buffer alone, and analysed in kinase reactions.

Molecule	amount of 7SK associated with affinity-purified CDK9-Flag (7SK/P-TEFb interaction [1])	7SK/P-TEFb interaction (7SK/P-TEFb interaction [2])	HIV-1 transcription (HIV-1 transcription)	increase of kinase activity of CDK9-Flag (autophosphorylation and phosphorylation of Pol II) (CDK9/cyclin T1 kinase)
Cc1c2oc3c(C)ccc(C(=O)N[C@@H]4C(=O)N[C@H](C(C)C)C(=O)N5CCC[C@H]5C(=O)N(C)CC(=O)N(C)[C@@H](C(C)C)C(=O)O[C@@H]4C)c3nc-2c(C(=O)N[C@@H]2C(=O)N[C@H](C(C)C)C(=O)N3CCC[C@H]3C(=O)N(C)CC(=O)N(C)[C@@H](C(C)C)C(=O)O[C@@H]2C)c(N)c1=O [actinomycin D] (I: T[dV]P[Sar][NMeV] / II: T[dV]P[Sar][NMeV]; ester I:1-I:C, II:1-II:C; linker I:N-II:N via Actinocin(9to1))	significantly reduced the amount of 7SK associated with the affinity-purified CDK9-Flag	did not disrupt the 7SK/P-TEFb interaction	enhances HIV-1 transcription to levels similar to those obtained by Tat	
B1				3-4 fold
